Each structure is given as a SMILES string. pKi: −log10 of the molar value.

The target of test [1] is Glutamate-cysteine ligase gshA (Escherichia coli) (UniProt P0A6W9). Briefly: Tested for inhibition of Escherichia coli gamma-glutamylcysteine synthetase at a concentration of 5.1 uM.
Test [2] has the same target. Briefly: Tested for inhibition of Escherichia coli gamma-glutamylcysteine synthetase at a concentration of 5.7 uM.

Glutamate-cysteine ligase gshA (Escherichia coli), sequence (P0A6W9 whole entry, looked up): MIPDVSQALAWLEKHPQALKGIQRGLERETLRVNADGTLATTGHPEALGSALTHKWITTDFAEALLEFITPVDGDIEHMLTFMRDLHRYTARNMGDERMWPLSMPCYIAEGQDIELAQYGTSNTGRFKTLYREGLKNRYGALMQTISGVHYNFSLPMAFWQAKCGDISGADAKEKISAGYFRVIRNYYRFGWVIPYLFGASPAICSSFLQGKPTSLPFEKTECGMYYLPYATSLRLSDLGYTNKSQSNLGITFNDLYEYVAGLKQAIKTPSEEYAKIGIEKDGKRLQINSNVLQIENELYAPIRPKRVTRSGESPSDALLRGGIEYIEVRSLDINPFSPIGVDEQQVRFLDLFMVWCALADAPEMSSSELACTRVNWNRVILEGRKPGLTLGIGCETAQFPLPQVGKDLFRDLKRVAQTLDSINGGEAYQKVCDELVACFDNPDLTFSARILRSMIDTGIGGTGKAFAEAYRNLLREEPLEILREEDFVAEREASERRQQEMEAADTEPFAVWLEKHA

Usually pKi stands for the Ki on a negative log10 scale, so that one unit is a factor of ten. A low value points to a high Ki. `CCCCS(=N)(=O)CCC(=N)C(=O)O` (configuration not stated): the negative logarithm of the Ki (pKi) in test [1] was 4.31.
The compound `CCC(CP(=O)(O)CC[C@H](N)C(=O)O)C(=O)O` (stereo partly drawn) [(2S)-2-ammonio-4-[(2-carboxylatobutyl)phosphinato]butanoate] had a pKi in test [2] of 5.31.

For the origin of these results see BindingDB's records for doi:10.1016/S0960-894X(96)00247-8 (1996).
